Square brackets hold non-standard residues; d marks the D form. Ends that are not written are not given here. Peptide text beside a SMILES is read from it.
Assays:
[1] = cited from earlier work
[2] = system: fibroblasts (NIH 3T3, mouse); experiment: Fibroblast adhesion and proliferation on hydrogel by optical microscopy; type: cell-based; conditions: fresh media provided; assay stopped after 1 month
Procedure: These cells were used as a model system because of their importance in connective tissue development and their easily distinguished morphology when adhered to the hydrogel scaffold. Qualitative studies were performed in which cells were added to either polystyrene control wells or wells containing a uniform slab (3 mm thick) of MAX1-hydrogel. Cell adhesion was qualitatively monitored via direct observation of cell spreading after four hours from the time of initial cell seeding by optical microscopy (a quantitative cell attachment assay is described below, see also Akiyama, S. K. Functional analysis of cell adhesion: Quantitation of cell-matrix attachment, 2002; Vol. 69, pp 281-296). Non-adhered fibroblasts have rounded morphologies and adhered fibroblasts have spread morphologies Proliferation was measured both qualitatively by optical microscopy and quantitatively by a ^3H thymidine-based cell seeding assay as described below. Hydrogels were prepared in 48 well tissue culture plates by either one of the following protocols. Protocol 1: MAX1 was dissolved in water (resulting in an acidic solution, pH˜5) and an equal volume of buffer (pH 9, 250 mM borate, 20 mM NaCl) was added at room temperature to induce folding/self-assembly resulting in a 2 wt % hydrogel. The resulting gel was bathed in DMEM containing 10% calf serum and 10 mg/mL gentamicin. […]

[3] = Temperature dependent CD of peptide folding and self-assembly (Tgel), with rheology of thermal reversibility; type: physicochemical; conditions: for Tgel, temperature at which folding and consequent self-assembly is triggered: 150 μM peptide, 125 mM Borate, 10 mM NaCl, pH 9, CD [θ]218; for reversibility of thermally induced hydrogelation: CD 150 μM and rheology 2 wt %, heating/cooling cycles 5-80° C.
Excerpt: At low temperature MAX1 is unfolded (and unassembled). At high temperature MAX1 folds into beta-sheet (and consequently self-assembles into a hydrogel). […] The relative hydrophobicity is MAX1>MAX2>MAX3 due to the isostructural but less hydrophobic substitutions of threonine for valine at the underlined positions. The most hydrophobic folds at the lowest temperature while the least hydrophobic folds at the highest temperature. This is a direct manifestations of the molecular parameter manipulations described in FIG. 2. Also shown are the calculated free energy of transfer of each corresponding unfolded peptide having an overall +8 charge state from octanol into water at 25° C. MAX1, the most hydrophobic has the highest free energy of transfer equal to 7.60 kcal/mol. MAX2 has a calculated transfer free energy of 6.88 kcal/mol, while the least hydrophobic MAX3 has the lowest energy of transfer of 6.45 kcal/mol.
This allows the characteristics of the hydrogels of the invention to be varied by adjusting these parameters. […] It is well known that water is better able to solvate hydrophobic groups at low temperatures. This phenomenon has been used to describe the cold denaturation of proteins where some proteins unfold at low temperatures, exposing their hydrophobic interiors to aqueous solvent. A 150 μM aqueous solution of MAX1 unfolds when cooled below room temperature. The CD spectrum at 5° C. is consistent with random coil conformation, FIG. 9A. However, warming the solution to 40° C. results in a spectra consistent with β-sheet structure. […] In fact, previous studies involving the pH induced folding and self-assembly of MAX1 were performed at 20° C. At this temperature, folding and self-assembly are slow enough to be conveniently monitored. At higher temperatures, folding and self-assembly leading to hydrogelation is fast (instantaneous to seconds depending on concentration). If the formation of hydrophobic interactions affects the folding and self-assembly process, then altering the hydrophobic content of MAX1 should affect the temperature at which folding is triggered. […] MAX2 is identical to MAX1 except that one valine residue has been replaced with the isostructural, but less hydrophobic residue, threonine. In MAX3, two valines are replaced with threonine residues. The resulting peptides vary in their hydrophobicity as evident by comparing calculated free energies of transfer from octanol into water, FIG. 9. […] Thus, the formation of hydrophobic contacts influences folding and self-assembly. […] Thus, the characteristics of the hydrogels of the invention can be varied by adjusting the amino acid residues of the peptides used to form the hydrogels to increase or decrease the hydrophobicity of the amino acid residues used.
There are reports of large polymers that are thermally responsive. The present invention provides the first system that employs temperature triggered folding to induce self-assembly. […] Heating the solution to 80° C. results in a spectra consistent with β-sheet structure. […] The temperatures used in both CD and rheology bracket the temperature (Tgel=60° C., FIG. 9) at which folding and consequent self-assembly is triggered. […] For example, free flowing peptide solutions could be prepared at room temperature and administered in vivo where the temperature of the body could induce gelation. Some Poly-N-isopropylacrylamide polymers have been engineered have been engineered to undergo such transitions ultimately affording extracellular-like scaffolds for tissue regeneration. The above studies support the idea that the formation of hydrophobic interactions are important. MAX1-3 all contain valines and threonines at hydrogen bonded positions. At these positions, their side chains prefer to adopt a trans rotamer. […]

[4] = Folding (CD) and hydrogelation of sequence variants under folding conditions; type: physicochemical; conditions: for conformation by CD under folding conditions: 150 μM, pH 9.0, 125 mM Borate, 10 mM NaCl
Excerpt: In some embodiments of the invention, various functionalities (e.g., cell adhesion epitopes, receptor agonists, receptor antagonists, ligands, small molecules, etc) may be incorporated into the hairpin hydrogel scaffold. One way to accomplish this would be to functionalize one or more amino acid side chains of the peptide. […] In some embodiments, the moieties to be incorporated at a particular side chain may be much larger (e.g. RGD-based motifs) and may contain charged residues. MAX5 (VKVKVKVKV^DPPTKVKEKVKV-NH2) was prepared to investigate the possibility of incorporating a charged residue on the hydrophobic face of MAX1. The sequence contains a glutamic acid residue at position 16 which is negatively charged at basic pH where MAX1 normally folds and assembles. […] However, alterations to the hydrophilic face of MAX1 are well tolerated. Sequences in which one or two lysine residues are replaced with other residues such as cysteine, serine, and glutamic acid are capable of folding and self-assembly into rigid hydrogels (data not shown).
The peptides described above contain identical turn sequences, namely (-V^DPPT-). This sequence has a strong propensity to form a type II′ turn and therefore helps to drive intramolecular folding. Since intramolecular folding must occur prior to self-assembly, alterations to this turn sequence that inhibit turn structure formation can be used to modulate intramolecular folding and self-assembly leading to hydrogelation. MAX9 was prepared to probe the importance of the turn region (VKVKVKVKV^LPPTKVKVKVKV-NH2). MAX9 is identical to MAX1 with the exception that the ^DPro at position ten has been replaced with ^LPro. Unlike the dipeptide ^DPro^LPro contained within MAX1 that favors type II′ turn formation, the ^LPro^LPro motif of MAX9 favors an open conformation. The two strands emanating from an open ^LPro^LPro conformation would be projected in opposite directions. Thus, intramolecular folding resulting in β-hairpin formation would be highly unfavored. […]

NC(=O)CN1CCN(CC(N)=O)CCN(CC(N)=O)CCN(CC(N)=O)CC1 [DOTAM]
Kd ([1]; read-out: Kd for calcium): 29 nM

CC(C)[C@H](N)C(=O)N[C@@H](CCCCN)C(=O)N[C@H](C(=O)N[C@@H](CCCCN)C(=O)N[C@H](C(=O)N[C@@H](CCCCN)C(=O)N[C@H](C(=O)N[C@@H](CCCCN)C(=O)N[C@H](C(=O)N1CCC[C@@H]1C(=O)N1CCC[C@H]1C(=O)N[C@H](C(=O)N[C@@H](CCCCN)C(=O)N[C@H](C(=O)N[C@@H](CCCCN)C(=O)N[C@H](C(=O)N[C@@H](CCCCN)C(=O)N[C@H](C(=O)N[C@@H](CCCCN)C(=O)N[C@H](C(N)=O)C(C)C)C(C)C)C(C)C)C(C)C)[C@@H](C)O)C(C)C)C(C)C)C(C)C)C(C)C [MAX1, VKVKVKVK V^DPPT KVKVKVKV-NH2] (H-VKVKVKVKV[dP]PTKVKVKVKV-NH2)
time cells remain viable on gel [2]: ≥ 1 month

-DRKADGYIDFEE-
Kd for Ca(II) ([1]; linear peptide, calcium binding loop of Troponin C): low mM

KVKVKVKV K^DPPS VKVKVKVK-NH2 [MAX4]
Tgel, temperature at which folding and consequent self-assembly is triggered [3]: 20 °C

VKVKVKTK V^DPPT KVKTKVKV-NH2 [MAX3]
Tgel, temperature at which folding and consequent self-assembly is triggered [3]: 60 °C | reversibility of thermally induced hydrogelation [3]: thermally reversible

VKVKVKVK VPPT KVKVKVKV-NH2 (VKVKVKVKVPPTKVKVKVKV-NH2) [MAX9]
conformation by CD under folding conditions [4]: only random coil | hydrogelation ([4]; folding conditions, 2 wt % solutions): failed to undergo hydrogelation

VKVKVKVK V^DPPT KVKEKVKV-NH2 [MAX5]
conformation by CD under folding conditions [4]: random coil

VKVKVKVK V^DPPT KVKTKVKV-NH2 [MAX2]
reversibility of thermally induced hydrogelation [3]: not reversible | temperature above which peptide folds/self-assembles ([3]; pH 9 (10 mM NaCl)): greater than 45 °C | temperature below which peptide is unfolded ([3]; pH 9 (10 mM NaCl)): below 40 °C
